The data set can be described thus: Color development of photochromic cured product (color density, maximum absorption wavelength), xenon lamp 120 seconds. Type of data set: physicochemical. On the procedure:
To 100 parts by weight of a polymerizable monomer consisting of 45 parts by weight of 4G, 45 parts by weight of 3PG, 9 parts by weight of GMA and 1 part by weight of MSD were added 0.05 part by weight of fulgimide compound I-(1) and 1 part by weight of Perbutyl ND as a polymerization catalyst. The solution was stirred thoroughly until the content thereof was completely dissolved. The solution was poured into a mold constituted by a glass plate and a gasket composed of an ethylene-vinyl acetate copolymer. The mold was placed in an air oven and the solution therein was subjected to polymerization at 35 to 90° C. for 20 hours. After the completion of the polymerization, the obtained photochromic cured product was removed from the glass plate of the mold.
The obtained photochromic cured product having a thickness of 2 mm was exposed to the light emitted from a xenon lamp, model L-2480 (300 W) SHL-100, manufactured by Hamamatsu Photonics, through Aero Mass Filter (a product of Corning Co.), at 20±1° C. for 120 seconds at a beam intensity (on the polymer surface of 365 nm=2.4 mW/cm^2 and 254 nm=24 μW/cm^2, whereby the cured product was allowed to develop a color. A value [ε (120 seconds)-ε (0 seconds)] was calculated and taken as the "color density" of the developed color. In the above expression, ε (120 seconds) is an absorbance at maximum absorption wavelength after 120 seconds of irradiation, and ε (0 seconds) is an absorbance at maximum absorption wavelength under no irradiation. […]
The procedure of Example 15 was repeated except that the composition of the polymerizable monomer was changed as shown in Table 2. […]

Where [1] appears, read: maximum absorption wavelength, monomers 3PG:45,4G:45,GMA:9,MSD:1.
[2] abbreviates: monomers 3PG:45,4G:45,GMA:9,MSD:1, 0.05 part fulgimide, 2 mm, 20±1° C., 120 seconds irradiation.
The mark [3] stands for this setting: Ex. 29, monomers 4G:65,3G:15,GMA:9,MS:8,HEMA:2,MSD:1.
[4] abbreviates: Ex. 30, monomers BR-MA:20,BzMA:25,3PG:37,GMA:9,MS:8,MSD:1.
Setting [5] is: Ex. 31, monomers BPE-100N:45,3G:37,GMA:9,MS:8,MSD:1.

Regarding `CC1=C2C(=O)N(c3cccc(S(C)(=O)=O)c3)C(=O)C2C2(c3occc31)C1CCCC2CCC1` (stereo not drawn) [I-(7)], the max under setting [1] was found to be 530 nm. This compound gave a Color density under setting [2] of 1.20 Abs.
As to `CC1=C2C(=O)N(CC#N)C(=O)C2C2(c3sc(-c4ccccc4)cc31)C1CC3CC(C1)CC2C3` (stereo not drawn) [Fulgimide compound D, reference compound], the max under setting [1] is listed as 568 nm. Under setting [2], this compound showed a Color density of 0.72 Abs.
`COc1ccc(-c2cc3c(s2)C2(C4CC5CC(C4)CC2C5)C2C(=O)N(CC#N)C(=O)C2=C3C)cc1` (stereo not drawn) [Fulgimide compound F, reference compound] registered a max under setting [1] of 578 nm. Besides, the Color density under setting [2] worked out at 0.78 Abs.
Take `COC(=O)c1cccc(N2C(=O)C3=C(C)c4ccsc4C4(C5CC6CC(C5)CC4C6)C3C2=O)c1` (stereo not drawn) [I-(10)]: the max under setting [1] turned out to be 550 nm. In addition, the Color density under setting [2] was 1.14 Abs.
As for `CC1=C2C(=O)N(c3ccccc3C#N)C(=O)C2C2(c3sc(-c4ccccc4)cc31)C1CC3CC(C1)CC2C3` (stereo not drawn) [Fulgimide compound B, reference compound], the max under setting [1] was 570 nm. In addition, the Color density under setting [2] was 0.64 Abs.
`CC1=C2C(=O)N(c3cccc(C(=O)Oc4ccccc4)c3)C(=O)C2C2(c3sccc31)C1CC3CC(C1)CC2C3` (stereo not drawn) [I-(14)] had a max under setting [1] of 562 nm. The same compound yielded a Color density under setting [2] of 1.12 Abs.
`CC1=C2C(=O)N(C#N)C(=O)C2C2(c3sc(-c4ccccc4)cc31)C1CC3CC(C1)CC2C3` (stereo not drawn) [Fulgimide compound E, reference compound] registered a max under setting [1] of 620 nm. For the same compound, under setting [2], the Color density amounted to 0.74 Abs.
On to `CC1=C2C(=O)N(c3cccc(C(=O)c4ccccc4)c3)C(=O)C2C2(c3sccc31)C1CC3CC(C1)CC2C3` (stereo not drawn) [I-(11)], for which the max under setting [1] is given as 563 nm. Further, the Color density under setting [2] was found to be 1.18 Abs.
For `CC1=C2C(=O)N(c3cccc(S(=O)(=O)c4ccccc4)c3)C(=O)C2C2(c3sccc31)C1CC3CC(C1)CC2C3` (stereo not drawn) [I-(13)], under setting [1], the max was 564 nm. The Color density under setting [2] came out at 1.25 Abs.
For `N#Cc1cccc(N2C(=O)C3=C(C4CC4)c4ccsc4C4(C5CC6CC(C5)CC4C6)C3C2=O)c1` (stereo not drawn) [I-(3), N-(3'-cyanophenyl)-4-cyclopropyl-6,7-dihydrospirobenzothiophenecarboxyimide-7,2'-tricyclo[3.3.1.13,7]decane], in that order: 560 nm and 1.42 Abs.
Under setting [1], `CC1=C2C(=O)N(c3ccccc3)C(=O)C2C2(c3sc(-c4ccccc4)cc31)C1CC3CC(C1)CC2C3` (stereo not drawn) [Fulgimide compound A] gave a max of 555 nm. Moreover, under setting [2], the Color density was 0.51 Abs.
`COc1ccc(-c2cc3c(s2)C2(C4CC5CC(C4)CC2C5)C2C(=O)N(c4cccc(C#N)c4)C(=O)C2=C3C)cc1` (stereo not drawn) [I-(1), N-(3'-cyanophenyl)-6,7-dihydro-4-methyl-2-(4'-methoxyphenyl)spirobenzothiophenecarboxyimide-7,2'-tricyclo[3.3.1.13,7]decane]: the Color density reads like this: under setting [3], 1.28 Abs; under setting [4], 1.29 Abs; under setting [5], 1.11 Abs; (Ex. 32, monomer 4G:100) 1.41 Abs; under setting [2], 1.33 Abs. Further, the max stood at 584 nm under setting [3]; 590 nm under setting [4]; 590 nm under setting [5]; 584 nm (Ex. 32, monomer 4G:100); 582 nm under setting [1].
In turn, `CC1=C2C(=O)N(c3cc(C#N)cc(C#N)c3)C(=O)C2C2(c3sc(-c4ccccc4)cc31)C1CC3CC(C1)CC2C3` (stereo not drawn) [I-(8), N-(3',5'-dicyanophenyl)-6,7-dihydro-4-methyl-2-phenylspirobenzothiophenecarboxyimide-7,2'-tricyclo[3.3.1.13,7]decane] displayed a max under setting [1] of 582 nm. The compound further came in with a Color density under setting [2] of 1.58 Abs.
Under setting [1], `CC1=C2C(=O)N(c3cccc(S(=O)O)c3)C(=O)C2C2(c3sccc31)C1CC3CC(C1)CC2C3` (stereo not drawn) [I-(12)] showed a max of 567 nm. Further, the Color density under setting [2] was 1.22 Abs.
The corresponding values for `CC1=C2C(=O)N(c3cccc(C(F)(F)F)c3)C(=O)C2C2(c3sc(-c4ccccc4)cc31)C1CC3CC(C1)CC2C3` (stereo not drawn) [I-(4), 6,7-dihydro-4-methyl-2-phenyl-N-(3'-trifluoromethylphenyl)spirobenzothiophenecarboxyimide-7,2'-tricyclo[3.3.1.13,7]decane] are 566 nm and 1.22 Abs.
Take `CC1=C2C(=O)N(c3cccc([N+](=O)[O-])c3)C(=O)C2C2(c3sccc31)C1CC3CC(C1)CC2C3` (stereo not drawn) [I-(5), 6,7-dihydro-4-methyl-N-(3'-nitrophenyl)spirobenzothiophenecarboxyimide-7,2'-tricyclo[3.3.1.13,7]decane]: the max under setting [1] is recorded as 572 nm. Also, the Color density under setting [2] came to 1.36 Abs.
Consider `CC1=C2C(=O)N(c3cccc(F)c3)C(=O)C2C2(c3sc(C)cc31)C1CC3CC(C1)CC2C3` (stereo not drawn) [I-(9)], for which, under setting [1], the max amounted to 574 nm. Also, the Color density under setting [2] is given as 1.43 Abs.
Regarding `CC1=C2C(=O)N(c3ccc(C#N)cc3)C(=O)C2C2(c3sc(-c4ccccc4)cc31)C1CC3CC(C1)CC2C3` (stereo not drawn) [Fulgimide compound C, reference compound], the max under setting [1] is 570 nm. Moreover, the Color density under setting [2] is listed as 0.63 Abs.
In the case of `CC(=O)c1cccc(N2C(=O)C3=C(C)c4cc(C)oc4C4(C5CCC4CC5)C3C2=O)c1` (stereo not drawn) [I-(6)], the max under setting [1] is given as 525 nm. Further, the Color density under setting [2] stood at 1.06 Abs.
For `CC1=C2C(=O)N(c3cccc(C#N)c3)C(=O)C2C2(c3sc(-c4ccccc4)cc31)C1CC3CC(C1)CC2C3` (stereo not drawn) [I-(2), N-(3'-cyanophenyl)-6,7-dihydro-4-methyl-2-phenylspirobenzothiophenecarboxyimide-7,2'-tricyclo[3.3.1.13,7]decane], in that order: 570 nm and 1.25 Abs.

The record behind these values is US6110400A, “Fulgimide compound and use thereof and composition containing said compound” (Tokuyama Corporation, priority 1996, dated 2000).
